Measurements: patent US20090203692A1, “NOVEL CHEMICAL COMPOUNDS” (SMITHKLINE BEECHAM CORPORATION, priority 2005, published 2009)
pIC50: −log10 of the molar value.

Target: T1, hYAK3 (Homo sapiens, UniProt O43781)
T1 construct: GST (N); His6 (C); made in house; host or cells: baculovirus expression system in Sf9 cells
T1 sequence (O43781 142-526): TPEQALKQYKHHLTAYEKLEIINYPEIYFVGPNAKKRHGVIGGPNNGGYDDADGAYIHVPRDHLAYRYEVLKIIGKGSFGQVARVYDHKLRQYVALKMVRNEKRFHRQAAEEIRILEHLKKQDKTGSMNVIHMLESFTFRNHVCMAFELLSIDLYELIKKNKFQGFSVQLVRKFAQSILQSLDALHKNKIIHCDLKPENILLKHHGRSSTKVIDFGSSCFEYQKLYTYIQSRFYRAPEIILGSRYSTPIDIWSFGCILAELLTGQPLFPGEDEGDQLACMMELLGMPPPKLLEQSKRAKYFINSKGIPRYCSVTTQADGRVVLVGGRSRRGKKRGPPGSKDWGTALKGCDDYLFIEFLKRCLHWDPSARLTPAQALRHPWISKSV
Assay: YAK3 Scintillation Proximity Assay using Ser164 of myelin basic protein as the phosphoacceptor (kinase assay of purified hYAK3)
Assay type: biochemical
Details: purified GST-hYak3-His6 4 nM; 1 μM ATP; 4 μM Ser164 peptide; 2 hours at room temperature; pIC50=-Log10(K)
Description: Substrate phosphorylation assays were carried out as follows:
YAK3 Scintillation Proximity Assays Using Ser164 of Myelin Basic Protein as the Phosphoacceptor
The source of Ser164 substrate peptide The biotinylated Ser164, S164A peptide(LGGRDSRAGS*PMARRKK-ahx-Biotin-Amide), sequence derived from the C-terminus of bovine myelin basic protein (MBP) with […] substituted as Ala 162, was purchased from California Peptide Research Inc. (Napa, Calif.), and its purity was determined by HPLC. Phosphorylation occurs at position 164 (marked S* above). The calculated molecular mass of the peptide is 2166 dalton. Solid sample was dissolved at 10 mM in DMSO, aliquoted, and stored at −20 C until use. […]
Kinase assay of purified hYAK3: Assays were performed in 96 well (Costar, Catalog No. 3789) or 384 well plates (Costar, Catalog No. 3705). […] Compounds, titrated in DMSO, were evaluated at concentrations ranging from 50 μM to 0.2 nM. […]
The data for compound dose responses were plotted as % Inhibition, calculated with the data reduction formula 100*(1−[(U1−C2)/(C1−C2)]), versus concentration of compound, where U is the unknown value, C1 is the average control value obtained for DMSO, and C2 is the average control value obtained for 0.05M EDTA. […] The results for each compound were recorded as pIC50 calculated as follows: pIC50=−Log 10(K).

pIC50: 8.80
Compound: O=C1N=C(Nc2cccnc2Cl)S/C1=C\c1ccc2ncccc2c1 [Example 1, (5Z)-2-[(2-Chloro-3-pyridinyl)amino]-5-(6-quinolinylmethylidene)-1,3-thiazol-4(5H)-one]
